{
  "source": "patent US20260053778A1",
  "about": "“USE OF NOVEL PPAR ACTIVITY MODULATOR FOR PREVENTION, AMELIORATION OR TREATMENT OF DEGENERATIVE BRAIN DISEASES” (POSTECH RESEARCH AND BUSINESS DEVELOPMENT FOUNDATION, priority 2022, published 2026)",
  "key": {"5×FAD mice [1]": {"test_system": "5×FAD mice", "test": "Aβ monomer Western blot and filter trap assay of brain lysates", "format": "in vivo, mouse", "settings": "brain tissue lysates, 6e10 Western blot", "method": "(§1) To investigate the soluble and insoluble Aβ components, two extraction steps were performed. Left hemisphere samples were homogenized at a concentration of 100 mg/mL in cold Tris-buffered saline (TBS consisting of 50 mM Tris-pH 7.5 and 150 mM NaCl) with a protease inhibitor cocktail (Thermo Fisher Scientific, Waltham, MO, USA). After centrifugation at 15,000 rpm for 1 hour at 4° C., the supernatant of the sample was used for western blotting. Insoluble proteins were extracted from the pellet by dissolving in 5 M guanidine buffer (5 M guanidine HCl and 150 mM NaCl-pH 7.5). Soluble and insoluble protein samples were stored at −80° C.\nThe insoluble fraction of the protein lysate from 5×FAD mice was diluted in 1% SDS-PBS and boiled at 95° C. for 5 min. The membrane was pre-equilibrated with 1×TBS. A dot blotter apparatus (Bio-Rad Laboratories, Hercules, CA, USA) was used for sample application, and the 6e10 antibody was used to detect the Aβ content in the brain lysate from 5×FAD mice treated with DTMB. The sample size was 3 mice per group."}, "5×FAD mice [2]": {"test_system": "5×FAD mice", "test": "Western blot and qPCR of APP and β-/γ-secretase in brain tissue", "format": "in vivo, mouse", "settings": "DTMB 10 mg/kg orally", "method": "Aβ peptides are generated from amyloid precursor protein (APP) by the action of β- and γ-secretase. It is possible that DTMB acts on APP processing to inhibit the formation of Aβ aggregates. To investigate this possibility, the protein levels of total APP and components of β- and γ-secretase were measured in the hippocampus and cortex using western blot and qPCR.\nas §1\nWestern blot analysis was performed in the same manner as in Example 2-4 using primary antibodies against nicastrin, pen2 (Cell Signaling Technology, Danvers, MA, USA), Aph1 (Invitrogen), amyloid C-terminal fragment (Santa Cruz Biotechnology, Dallas, TX, USA), and GAPDH (Bethyl Laboratories, Mongomery, TX, USA). Secondary antibodies from rabbit (Promega), rat, and goat (Bethyl Laboratories) were used, and detection was performed using SUPEX ECL reagent (Neuronex, Korea) and ImageQuant LAS-4000 (GE Healthcare, MA, USA) according to the manufacturer's instructions. Integrated blot densities were quantified using ImageJ."}},
  "data": [
    {"smiles": "COc1ccc(-c2cc(=O)oc3c(C)c(OC(=O)[C@H](Cc4c[nH]c5ccccc45)NC(=O)OC(C)(C)C)ccc23)cc1", "note": "[DTMB, [4-(4-Methoxyphenyl)-8-methyl-2-oxochromen-7-yl](2S)-3-(1H-indol-3-yl)-2-[(2-methylpropan-2-yl)oxycarbonylamino]propanoate]", "values": [
      {"measurement": "Amyloid β monomers", "setting": "5×FAD mice [1]", "value": "not reduced"},
      {"measurement": "Protein level of β-secretase", "setting": "5×FAD mice [2]; cortex", "value": "slightly decreased"},
      {"measurement": "APP protein and mRNA levels", "setting": "5×FAD mice [2]; hippocampus", "value": "no changes"},
      {"measurement": "Protein levels of β- and γ-secretase", "setting": "5×FAD mice [2]; hippocampus", "value": "no changes"}
    ]}
  ]
}
